Source: US8129384B2, “Imidazo[1,2-a]pyrazines as orexin receptor antagonists” (Glaxo Group Limited, priority 2008, dated 2012)
Where a name gives a salt, the structure may show the parent alone.

Columns and labels:
[1] = biological target: T1, human cloned orexin-1 receptor (Homo sapiens, UniProt O43613); assay: Antagonist affinity at human Orexin-1 receptor using FLIPR ([Ca2+]i); assay type: cell-based; conditions: CHO-hOX1 cells, EC80 hOrexinA stimulus, functional pKi from IC50 by modified Cheng-Prusoff correction; read-out: fpKi value at the human cloned orexin-1 receptor (converted)
T1 construct: expressed in transfected cells
T1 sequence (O43613 1-425): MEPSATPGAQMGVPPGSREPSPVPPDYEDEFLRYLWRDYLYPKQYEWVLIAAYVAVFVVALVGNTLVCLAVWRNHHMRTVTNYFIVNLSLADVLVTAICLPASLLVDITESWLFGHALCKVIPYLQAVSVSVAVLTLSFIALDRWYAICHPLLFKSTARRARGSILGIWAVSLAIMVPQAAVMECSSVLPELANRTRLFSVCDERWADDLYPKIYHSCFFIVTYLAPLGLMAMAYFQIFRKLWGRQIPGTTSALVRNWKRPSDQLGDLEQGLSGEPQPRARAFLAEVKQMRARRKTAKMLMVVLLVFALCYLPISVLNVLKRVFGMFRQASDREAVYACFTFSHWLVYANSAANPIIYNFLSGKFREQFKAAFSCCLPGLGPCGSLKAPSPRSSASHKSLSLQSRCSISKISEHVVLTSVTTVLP
Protocol: (§1) Determination of Antagonist Affinity at Human Orexin-1 and 2 Receptors Using FLIPR
(§2) Adherent Chinese Hamster Ovary (CHO) cells, stably expressing the recombinant human Orexin-1 (hOX1) or human Orexin-2 receptors (hOX2), were maintained in culture in Alpha Minimum Essential Medium (Gibco/Invitrogen, cat. no.; 22571-020), supplemented with 10% decomplemented foetal bovine serum (Life Technologies, cat. no. 10106-078) and 400 ug/mL Geneticin G418 (Calbiochem, cat. no. 345810). Cells were grown as monolayers under 95%:5% air:CO2 at 37° C. and passaged every 3-4 days. The highest passage used was 25. […]
(§3) An agonist stimulus 384-well plate containing 50 μL/well of human orexin A (hOrexinA) was prepared just before using by diluting with buffer a stock plate: final concentration is equivalent to the calculated EC80 for hOrexinA. […]
(§4) The loaded cells were then incubated for 10 min at 37° C. with test compound. The plates were then placed into a FLIPR™ (Molecular Devices, UK) to monitor cell fluorescence (λex=488 nm, λEM=540 nm) (Sullivan E, Tucker E M, Dale I L. Measurement of [Ca^2+]i using the fluometric imaging plate reader (FLIPR). In: Lambert D G (ed.), Calcium Signaling Protocols. New Jersey: Humana Press, 1999, 125-136). A baseline fluorescence reading was taken over a 5 to 10 second period, and then 10 μL of EC80 hOrexinA solution was added. […]

[2] = biological target: T2, human cloned orexin-2 receptor (Homo sapiens, UniProt O43614); assay: Antagonist affinity at human Orexin-2 receptor using FLIPR ([Ca2+]i); assay type: cell-based; conditions: CHO-hOX2 cells, EC80 hOrexinA stimulus, functional pKi from IC50 by modified Cheng-Prusoff correction; read-out: fpKi value at the human cloned orexin-2 receptor (converted)
T2 construct: expressed in transfected cells
T2 sequence (O43614 1-444): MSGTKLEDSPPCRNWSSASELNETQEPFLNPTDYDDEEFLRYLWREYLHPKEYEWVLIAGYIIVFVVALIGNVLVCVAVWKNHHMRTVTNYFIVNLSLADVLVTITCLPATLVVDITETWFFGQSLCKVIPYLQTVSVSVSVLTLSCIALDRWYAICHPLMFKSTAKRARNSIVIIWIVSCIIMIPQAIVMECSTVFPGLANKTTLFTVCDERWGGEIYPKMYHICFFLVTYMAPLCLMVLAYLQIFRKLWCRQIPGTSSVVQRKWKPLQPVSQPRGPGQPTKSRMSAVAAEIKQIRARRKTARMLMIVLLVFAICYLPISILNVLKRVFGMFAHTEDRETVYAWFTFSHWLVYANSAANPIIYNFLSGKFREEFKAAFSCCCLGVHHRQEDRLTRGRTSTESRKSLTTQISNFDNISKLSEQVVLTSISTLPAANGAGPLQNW
Protocol: as §1, §2, §3, §4

For `Cc1cn2cc(C[C@@H]3CCCCN3C(=O)c3nc(C)sc3-c3ccccc3)nc2c(C)n1` [Example 1, 6,8-dimethyl-2-({(2S)-1-[(2-methyl-5-phenyl-1,3-thiazol-4-yl)carbonyl]-2-piperidinyl}methyl)imidazo[1,2-a]pyrazine (HCl salt)], the Ki [1] was 5.01 nM and the Ki [2] was 6.31 nM.
